Test results reported in the supplement of paper PMC10307832.

Key:
Assay in all cases: relative viability (nuclei count vs DMSO), 5 days (fraction); higher = more cells survive
[1] = compound: O=C(NC1CCNCC1)c1n[nH]cc1NC(=O)c1c(Cl)cccc1Cl [AT-7519] + O=C(CCCCCCC(=O)Nc1ccccc1)NO [Vorinostat] (partner 1 µM)
Method in brief: (§1)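 Each reported value is a median over duplicate plates. It expresses relative viability: treated-well nuclei count divided by vehicle-well nuclei count. Lung cancer cell lines in 1536-well plates were dosed by pin tool a day after seeding, alone with one drug or with a fixed anchor-drug dose plus five library-drug doses (not always all listed) in √10 steps, and nuclei were counted after 5 days.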

[2] = compound: O=C(NC1CCNCC1)c1n[nH]cc1NC(=O)c1c(Cl)cccc1Cl [AT-7519] + Nc1ncn([C@H]2C[C@H](O)[C@@H](CO)O2)c(=O)n1 [Decitabine] (partner 2 µM)
Method in brief: as §1

[3] = compound: O=C(NC1CCNCC1)c1n[nH]cc1NC(=O)c1c(Cl)cccc1Cl [AT-7519] + Cc1nc(Nc2ncc(C(=O)Nc3c(C)cccc3Cl)s2)cc(N2CCN(CCO)CC2)n1 [Dasatinib] (partner 0.075 µM)
Method in brief: as §1

[4] = compound: C1=CC2=C(C=C(C(=C2N=C1)O)N=NC3=CC4=C(C=C3)C=C(C=C4)S(=O)(=O)O)S(=O)(=O)O + O=C(CCCCCCC(=O)Nc1ccccc1)NO [Vorinostat] (partner 1 µM)
Method in brief: as §1

Cell Line | relative viability ([1]; first compound 0.01 µM) | relative viability ([1]; first compound 0.03162 µM) | relative viability ([1]; first compound 0.3162 µM) | relative viability ([1]; first compound 1 µM) | relative viability ([2]; first compound 0.01 µM) | relative viability ([2]; first compound 0.03162 µM) | relative viability ([2]; first compound 0.3162 µM) | relative viability ([2]; first compound 1 µM) | relative viability ([3]; first compound 0.01 µM) | relative viability ([3]; first compound 0.03162 µM) | relative viability ([3]; first compound 0.3162 µM) | relative viability ([3]; first compound 1 µM) | relative viability ([4]; first compound 0.08 µM) | relative viability ([4]; first compound 0.253 µM) | relative viability ([4]; first compound 0.8 µM) | relative viability ([4]; first compound 2.53 µM) | relative viability ([4]; first compound 8 µM)
NCI-H1666 | 0.998 | 0.931 | 1.03 | 0.959 | 0.819 | 0.725 | 0.774 | 0.673 | 0.744 | 0.75 | 0.75 | 0.593 | 1.05 | 0.98 | 1.03 | 1.07 | 0.985
SW 900 | 0.398 | 0.482 | 0.294 | 0.493 | 0.437 | 0.435 | 0.422 | 0.32 | 0.715 | 0.568 | 0.642 | 0.254 | 0.624 | 0.399 | 0.604 | 0.611 | 0.426
NCI-H1651 | 0.606 | 0.505 | 0.56 | 0.643 | 0.678 | 0.555 | 0.626 | 0.614 | 0.396 | 0.304 | 0.406 | 0.292 | 0.66 | 0.561 | 0.566 | 0.535 | 0.546
NCI-H1755 | 0.769 | 0.693 | 0.839 | 0.814 | 0.724 | 0.721 | 0.825 | 0.716 | 0.465 | 0.404 | 0.465 | 0.409 | 0.81 | 0.773 | 0.709 | 0.824 | 0.728
NCI-H661 | 0.792 | 0.829 | 0.867 | 0.261 | 0.568 | 0.538 | 0.534 | 0.254 | 0.732 | 0.849 | 0.71 | 0.392 | 0.765 | 0.756 | 0.783 | 0.785 | 0.796
HARA | 0.479 | 0.527 | 0.588 | 0.223 | 0.526 | 0.531 | 0.819 | 0.441 | 0.265 | 0.28 | 0.314 | 0.211 | 0.631 | 0.383 | 0.565 | 0.493 | 0.551
NCI-H596 | 0.584 | 0.611 | 0.471 | 0.697 | 0.939 | 0.967 | 0.789 | 1.16 | 0.586 | 0.501 | 0.629 | 0.612 | 0.544 | 0.645 | 0.545 | 0.613 | 0.649
NCI-H23 | 0.598 | 0.619 | 0.513 | 0.4 | 0.296 | 0.296 | 0.298 | 0.254 | 0.681 | 0.715 | 0.811 | 0.438 | 0.661 | 0.627 | 0.599 | 0.561 | 0.633
LCLC-97TM1 | 0.955 | 0.703 | 0.526 | 0.379 | 0.281 | 0.207 | 0.196 | 0.169 | 0.911 | 0.791 | 0.763 | 0.396 | 0.593 | 0.657 | 0.632 | 0.575 | 0.715
EPLC-272H | 0.406 | 0.328 | 0.36 | 0.0395 | 0.367 | 0.322 | 0.387 | 0.298 | 0.325 | 0.339 | 0.382 | 0.248 | 0.453 | 0.358 | 0.306 | 0.876 | 0.491
NCI-H2342 | 0.773 | 0.696 | 0.772 | 0.631 | 0.709 | 0.61 | 0.701 | 0.631 | 0.328 | 0.277 | 0.314 | 0.313 | 0.834 | 0.709 | 0.72 | 0.695 | 0.688
NCI-H1915 | 0.537 | 0.558 | 0.588 | 0.546 | 0.25 | 0.248 | 0.288 | 0.235 | 0.215 | 0.316 | 0.334 | 0.274 | 0.539 | 0.547 | 0.518 | 0.513 | 0.527
NCI-H2405 | 1.08 | 0.988 | 0.954 | 0.852 | 0.741 | 0.744 | 0.711 | 0.486 | 0.203 | 0.216 | 0.199 | 0.219 | 1.01 | 0.937 | 0.942 | 1.02 | 0.932
NCI-H322M | 0.846 | 0.982 | 0.731 | 0.83 | 0.654 | 0.643 | 0.631 | 0.554 | 0.257 | 0.257 | 0.226 | 0.275 | 0.967 | 0.825 | 0.864 | 0.856 | 0.905
NCI-H2170 | 0.718 | 0.867 | 0.869 | 0.736 | 0.495 | 0.454 | 0.461 | 0.522 | 0.593 | 0.576 | 0.626 | 0.558 | 0.975 | 0.811 | 0.862 | 0.914 | 0.784
NCI-H522 | 0.933 | 0.815 | 0.963 | 1.05 | 0.648 | 0.588 | 0.662 | 0.644 | – | 0.864 | 0.841 | 0.956 | 0.98 | 1.01 | 0.943 | 0.999 | 0.977
NCI-H1395 | 0.82 | 0.655 | 0.57 | 0.565 | 0.658 | 0.726 | 0.691 | 0.582 | 0.418 | 0.377 | 0.408 | 0.413 | 0.674 | 0.596 | 0.554 | 0.73 | 0.551
NCI-H358 | 0.646 | 0.604 | 0.5 | 0.108 | 0.202 | 0.193 | 0.198 | 0.112 | 0.15 | 0.163 | 0.161 | 0.119 | 0.676 | 0.711 | 0.628 | 0.748 | 0.701
NCI-H838 | 0.758 | 0.653 | 0.62 | 0.153 | 0.479 | 0.45 | 0.383 | 0.152 | 0.298 | 0.285 | 0.259 | 0.249 | 0.755 | 0.681 | 0.712 | 0.688 | 0.71
